Assays:
Assay in all cases: NCI-60 SRB cytotoxicity screen
Type in all cases: cell-based
[1] = system: SW-620 (colon cancer); details: Homo sapiens; SW-620, single dose 10 μM; read-out: growth inhibition (GI%)
[2] = system: NCI/ADR-RES (ovarian cancer); details: Homo sapiens, single dose 10 μM, read-out: growth inhibition (GI%)
[3] = system: M14 (melanoma); details: Homo sapiens; M14, single dose 10 μM; read-out: growth inhibition (GI%)
[4] = system: MDA-MB-468 (breast cancer); details: Homo sapiens; MDA-MB-468, single dose 10 μM; read-out: growth inhibition (GI%)
Outline: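 NCI-60 single-dose (10^−5 M) screen in MDA-MB-468 with SRB protein-stain read-out after 48 h exposure; cells TCA-fixed and absorbance read at 540 nm. Reported as GI%, with compounds meeting NCI activity criteria then run at five doses (0.01–100 μM).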

[5] = system: KM12 (colon cancer); details: Homo sapiens; KM12, single dose 10 μM; read-out: growth inhibition (GI%)
[6] = system: CAKI-1 (renal cancer); details: Homo sapiens; CAKI-1, single dose 10 μM; read-out: growth inhibition (GI%)
[7] = system: A498 (renal cancer); details: Homo sapiens; A498, single dose 10 μM; read-out: growth inhibition (GI%)
[8] = system: NCI-H460 (non-small cell lung cancer); details: Homo sapiens; NCI-H460, single dose 10 μM; read-out: growth inhibition (GI%)
[9] = system: SN12C (renal cancer); details: Homo sapiens, single dose 10 μM, read-out: growth inhibition (GI%)
[10] = system: MCF7 (breast cancer); details: Homo sapiens; MCF7, single dose 10 μM; read-out: growth inhibition (GI%)
[11] = system: SF-539 (CNS cancer); details: Homo sapiens; SF-539, single dose 10 μM; read-out: growth inhibition (GI%)
[12] = system: TK-10 (renal cancer); details: Homo sapiens; TK-10, single dose 10 μM; read-out: growth inhibition (GI%)
[13] = system: ACHN (renal cancer); details: Homo sapiens, single dose 10 μM, read-out: growth inhibition (GI%)
[14] = system: HT29 (colon cancer); details: Homo sapiens, HT-29; HT29, single dose 10 μM; read-out: growth inhibition (GI%)
[15] = system: SK-MEL-5 (melanoma); details: Homo sapiens; SK-MEL-5, single dose 10 μM; read-out: growth inhibition (GI%)
[16] = system: NCI-H23 (non-small cell lung cancer); details: Homo sapiens; NCI-H23, single dose 10 μM; read-out: growth inhibition (GI%)
[17] = system: MDA-MB-435 (melanoma); details: Homo sapiens, MDA-MB-435, read-out: growth inhibition (GI%);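 note: growth inhibition in percent at a single 10 µM dose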
[18] = system: IGROV1 (ovarian cancer); details: Homo sapiens, IGROV-1; IGROV1, single dose 10 μM; read-out: growth inhibition (GI%)
[19] = system: 786-0 (renal cancer); details: Homo sapiens; 786-0, single dose 10 μM; read-out: growth inhibition (GI%)
[20] = system: BT-549 (breast cancer); details: Homo sapiens; BT-549, single dose 10 μM; read-out: growth inhibition (GI%)
[21] = system: SR (leukemia); details: single dose 10 μM, read-out: growth inhibition (GI%)
[22] = system: LOX IMVI (melanoma); details: Homo sapiens, single dose 10 μM, read-out: growth inhibition (GI%)
[23] = system: MALME-3M (melanoma); details: Homo sapiens, single dose 10 μM, read-out: growth inhibition (GI%)
[24] = system: SNB-19 (CNS cancer); details: Homo sapiens; SNB-19, single dose 10 μM; read-out: growth inhibition (GI%)
[25] = system: MOLT-4 (leukemia); details: Homo sapiens; MOLT-4, single dose 10 μM; read-out: growth inhibition (GI%)
[26] = system: SK-MEL-28 (melanoma); details: Homo sapiens; SK-MEL-28, single dose 10 μM; read-out: growth inhibition (GI%)
[27] = system: NCI-H522 (non-small cell lung cancer); details: Homo sapiens; NCI-H522, single dose 10 μM; read-out: growth inhibition (GI%)

CCc1cccc2cc(C=CC(=O)c3ccc(OC)cc3)c(Cl)nc12 [Compound 3a, 3-(2-Chloro-8-ethylquinolin-3-yl)-1-(4-methoxyphenyl)prop-2-en-1-one] showed an inhibition at 10 µM [1] of less than 10%, an inhibition at 10 µM [2] of less than 10% and an inhibition at 10 µM [3] of less than 10%. For the same molecule, the inhibition at 10 µM [4] was less than 10%, the inhibition at 10 µM [5] was less than 10% and the inhibition at 10 µM [6] was 19.3%. The inhibition at 10 µM [7] was less than 10%, the inhibition at 10 µM [8] was less than 10% and the inhibition at 10 µM [9] was less than 10%. The inhibition at 10 µM [10] was 18%, the inhibition at 10 µM [11] was 18.9% and the inhibition at 10 µM [12] was less than 10%. It also gave an inhibition at 10 µM [13] of less than 10%, an inhibition at 10 µM [14] of less than 10% and an inhibition at 10 µM [15] of less than 10%. For the same molecule, the inhibition at 10 µM [16] was less than 10%, the inhibition at 10 µM [17] was less than 10% and the inhibition at 10 µM [18] was less than 10%. For the same molecule, the inhibition at 10 µM [19] was less than 10%, the inhibition at 10 µM [20] was 22.5% and the inhibition at 10 µM [21] was 38.4%. For the same molecule, the inhibition at 10 µM [22] was 11.3%, the inhibition at 10 µM [23] was less than 10% and the inhibition at 10 µM [24] was less than 10%. For the same molecule, the inhibition at 10 µM [25] was 16.8%, the inhibition at 10 µM [26] was less than 10% and the inhibition at 10 µM [27] was 21.1%.

Source: paper PMC11240139, “Exploring the antitumor potential of novel quinoline derivatives via tubulin polymerization inhibition in breast cancer; design, synthesis and molecular docking” (RSC Advances, 2024)
